What was measured:
[1] = test system: CHOP, BiP, and DR5 mRNA in HCT116 cells; assay: qPCR of UPR target transcripts (CHOP, BiP, DR5); format: cell-based, Homo sapiens; settings: for 2^-(deltaCq) CHOP / 2^-(deltaCq) DR5 total / Cq CHOP / Cq DR5 total / Cq(sample) - avg Cq(GAPDH), CHOP / Cq(sample) - avg Cq(GAPDH), DR5 total / avg. fold induction CHOP / avg. fold induction DR5 total / fold induction CHOP / fold induction DR5 total: Rep 2; for avg. fold induction CHOP / avg. fold induction DR5 total / fold induction CHOP / fold induction DR5 total: vs 24 hr cytoGFP (empty traffo)
Experimental: Cells were grown in 6-well plates and harvested with 0.5 ml of TRIzol reagent (Life Technologies) per manufacturer’s protocol to extract RNA. For cDNA synthesis, 500 ng of total RNA was reverse transcribed with 2 μl of the SuperScript VILO master mix (Life Technologies # 11755050) in a total reaction volume of 10 μl following the manufacturer’s protocol for reaction temperature and duration. The reverse transcription product was diluted to 200 μl with 10 mM Tris-HCl pH 8.2 and used at 1:100 dilution for subsequent RT-PCR reactions.
PCR samples were prepared as described by manufacturer’s protocols from iQ SYBR Green Supermix (BioRad #17088800).
For each experiment, qRT-PCR reactions were set up in triplicate and run using a CFX96 Real Time System (Bio-Rad). Quantitation cycles were determined with CFX Manager 3.0 software (Bio-Rad) and then normalized to GAPDH as an internal control.

GAPDH = assay: qPCR of GAPDH (reference transcript); format: cell-based; settings: Rep 2; for avg. fold induction GAPDH / fold induction GAPDH: vs 24 hr cytoGFP (empty traffo)
[2] = 1000 ng plasmid, sheet Rep 1, mean of 3 replicates
[3] = Compiled Reps INS RHO, average of 6 reps

## RHO-GFP: GFP-tagged rhodopsin expressed from plasmid
[1]; 1000 ng plasmid, sheet Rep 1, mean
  2^-(deltaCq) for GFP norm to GAPDH, avg: 55.6234
[1]; [2]
  BiP avg fold induction relative to empty traffo: 1.525
  CHOP avg fold induction relative to empty traffo: 2.086
  DR5 total avg fold induction relative to empty traffo: 1.336
  GAPDH avg fold induction relative to empty traffo: 1.003
[1]; 3 hr, replicate 1
  2^-(deltaCq) CHOP: 0.04356
  2^-(deltaCq) DR5 total: 0.02287
  Cq CHOP: 24.2586
  Cq DR5 total: 25.1882
  Cq(sample) - avg Cq(GAPDH), CHOP: 4.521
  Cq(sample) - avg Cq(GAPDH), DR5 total: 5.45
  fold induction CHOP: 1.9981
  fold induction DR5 total: 0.7985
[1]; 3 hr, replicate 2
  2^-(deltaCq) CHOP: 0.03694
  2^-(deltaCq) DR5 total: 0.02336
  Cq CHOP: 24.4965
  Cq DR5 total: 25.1574
  Cq(sample) - avg Cq(GAPDH), CHOP: 4.759
  Cq(sample) - avg Cq(GAPDH), DR5 total: 5.42
  fold induction CHOP: 1.694
  fold induction DR5 total: 0.8157
[1]; 3 hr, replicate 3
  2^-(deltaCq) CHOP: 0.03617
  2^-(deltaCq) DR5 total: 0.01987
  Cq CHOP: 24.5271
  Cq DR5 total: 25.391
  Cq(sample) - avg Cq(GAPDH), CHOP: 4.789
  Cq(sample) - avg Cq(GAPDH), DR5 total: 5.653
  fold induction CHOP: 1.659
  fold induction DR5 total: 0.6938
[1]; 3 hr, mean of 3 replicates
  avg. fold induction CHOP: 1.784
  avg. fold induction DR5 total: 0.7693
[1]; 7 hr, replicate 1
  2^-(deltaCq) CHOP: 0.1012
  2^-(deltaCq) DR5 total: 0.0421
  Cq CHOP: 22.9621
  Cq DR5 total: 24.2279
  Cq(sample) - avg Cq(GAPDH), CHOP: 3.304
  Cq(sample) - avg Cq(GAPDH), DR5 total: 4.57
  fold induction CHOP: 4.643
  fold induction DR5 total: 1.47
[1]; 7 hr, replicate 2
  2^-(deltaCq) CHOP: 0.09032
  2^-(deltaCq) DR5 total: 0.04029
  Cq CHOP: 23.1268
  Cq DR5 total: 24.2914
  Cq(sample) - avg Cq(GAPDH), CHOP: 3.4688
  Cq(sample) - avg Cq(GAPDH), DR5 total: 4.633
  fold induction CHOP: 4.143
  fold induction DR5 total: 1.407
[1]; 7 hr, replicate 3
  2^-(deltaCq) CHOP: 0.09401
  2^-(deltaCq) DR5 total: 0.03735
  Cq CHOP: 23.069
  Cq DR5 total: 24.4008
  Cq(sample) - avg Cq(GAPDH), CHOP: 3.411
  Cq(sample) - avg Cq(GAPDH), DR5 total: 4.743
  fold induction CHOP: 4.312
  fold induction DR5 total: 1.304
[1]; 7 hr, mean of 3 replicates
  avg. fold induction CHOP: 4.366
  avg. fold induction DR5 total: 1.393
[1]; 24 hr, replicate 1
  2^-(deltaCq) CHOP: 0.04125
  2^-(deltaCq) DR5 total: 0.04254
  Cq CHOP: 23.6176
  Cq DR5 total: 23.5731
  Cq(sample) - avg Cq(GAPDH), CHOP: 4.6
  Cq(sample) - avg Cq(GAPDH), DR5 total: 4.555
  fold induction CHOP: 1.892
  fold induction DR5 total: 1.485
[1]; 24 hr, replicate 2
  2^-(deltaCq) CHOP: 0.03991
  2^-(deltaCq) DR5 total: 0.04129
  Cq CHOP: 23.6651
  Cq DR5 total: 23.6162
  Cq(sample) - avg Cq(GAPDH), CHOP: 4.647
  Cq(sample) - avg Cq(GAPDH), DR5 total: 4.598
  fold induction CHOP: 1.831
  fold induction DR5 total: 1.441
[1]; 24 hr, replicate 3
  2^-(deltaCq) CHOP: 0.039
  2^-(deltaCq) DR5 total: 0.03658
  Cq CHOP: 23.6985
  Cq DR5 total: 23.7909
  Cq(sample) - avg Cq(GAPDH), CHOP: 4.681
  Cq(sample) - avg Cq(GAPDH), DR5 total: 4.773
  fold induction CHOP: 1.789
  fold induction DR5 total: 1.277
[1]; 24 hr, mean of 3 replicates
  avg. fold induction CHOP: 1.837
  avg. fold induction DR5 total: 1.401
[1]; Compiled Reps INS RHO, average of 3 reps
  BiP avg fold change relative to empty: 1.525
[1]; [3]
  CHOP avg fold change relative to empty: 1.961
  DR5 avg fold change relative to empty: 1.368
  GAPDH avg fold change relative to empty: 1.006
  GFP construct avg fold change relative to empty: 63.7569
[1]; Compiled Reps INS RHO, rep 1
  BiP fold change relative to empty: 1.759
  CHOP fold change relative to empty: 2.318
  DR5 fold change relative to empty: 1.2854
  GAPDH fold change relative to empty: 0.9696
  GFP construct fold change relative to empty: 45.8961
[1]; Compiled Reps INS RHO, rep 2
  BiP fold change relative to empty: 1.438
  CHOP fold change relative to empty: 1.9687
  DR5 fold change relative to empty: 1.492
  GAPDH fold change relative to empty: 1.117
  GFP construct fold change relative to empty: 55.1085
[1]; Compiled Reps INS RHO, rep 3
  BiP fold change relative to empty: 1.377
  CHOP fold change relative to empty: 1.972
  DR5 fold change relative to empty: 1.23
  GAPDH fold change relative to empty: 0.9232
  GFP construct fold change relative to empty: 65.8656
[1]; Compiled Reps INS RHO, rep 4
  CHOP fold change relative to empty: 1.892
  DR5 fold change relative to empty: 1.485
  GAPDH fold change relative to empty: 0.8039
  GFP construct fold change relative to empty: 62.5314
[1]; Compiled Reps INS RHO, rep 5
  CHOP fold change relative to empty: 1.831
  DR5 fold change relative to empty: 1.441
  GAPDH fold change relative to empty: 1.063
  GFP construct fold change relative to empty: 61.8163
[1]; Compiled Reps INS RHO, rep 6
  CHOP fold change relative to empty: 1.789
  DR5 fold change relative to empty: 1.277
  GAPDH fold change relative to empty: 1.16
  GFP construct fold change relative to empty: 91.3236
[1]; HCT116, transfected 24 hr
  UPR target gene transcription: upregulated BiP and CHOP mRNAs
GAPDH; 3 hr, mean of 3 replicates
  Cq GAPDH: 19.7379
  avg. fold induction GAPDH: 1.004
GAPDH; 3 hr, replicate 1
  2^-(deltaCq) GAPDH: 0.8551
  Cq GAPDH: 19.9638
  Cq(sample) - avg Cq(GAPDH), GAPDH: 0.2259
  fold induction GAPDH: 0.8525
GAPDH; 3 hr, replicate 2
  2^-(deltaCq) GAPDH: 1.128
  Cq GAPDH: 19.5639
  Cq(sample) - avg Cq(GAPDH), GAPDH: -0.174
  fold induction GAPDH: 1.125
GAPDH; 3 hr, replicate 3
  2^-(deltaCq) GAPDH: 1.0366
  Cq GAPDH: 19.686
  Cq(sample) - avg Cq(GAPDH), GAPDH: -0.05187
  fold induction GAPDH: 1.034
GAPDH; 7 hr, mean of 3 replicates
  Cq GAPDH: 19.658
  avg. fold induction GAPDH: 1.016
GAPDH; 7 hr, replicate 1
  2^-(deltaCq) GAPDH: 0.7732
  Cq GAPDH: 20.029
  Cq(sample) - avg Cq(GAPDH), GAPDH: 0.371
  fold induction GAPDH: 0.7709
GAPDH; 7 hr, replicate 2
  2^-(deltaCq) GAPDH: 1.046
  Cq GAPDH: 19.5931
  Cq(sample) - avg Cq(GAPDH), GAPDH: -0.06483
  fold induction GAPDH: 1.043
GAPDH; 7 hr, replicate 3
  2^-(deltaCq) GAPDH: 1.236
  Cq GAPDH: 19.3518
  Cq(sample) - avg Cq(GAPDH), GAPDH: -0.3062
  fold induction GAPDH: 1.233
GAPDH; 24 hr, mean of 3 replicates
  Cq GAPDH: 19.018
  avg. fold induction GAPDH: 1.009
GAPDH; 24 hr, replicate 1
  2^-(deltaCq) GAPDH: 0.8063
  Cq GAPDH: 19.3286
  Cq(sample) - avg Cq(GAPDH), GAPDH: 0.3107
  fold induction GAPDH: 0.8039
GAPDH; 24 hr, replicate 2
  2^-(deltaCq) GAPDH: 1.066
  Cq GAPDH: 18.9252
  Cq(sample) - avg Cq(GAPDH), GAPDH: -0.09277
  fold induction GAPDH: 1.063
GAPDH; 24 hr, replicate 3
  2^-(deltaCq) GAPDH: 1.163
  Cq GAPDH: 18.8001
  Cq(sample) - avg Cq(GAPDH), GAPDH: -0.2179
  fold induction GAPDH: 1.16

From publication PMC7041945, “Misfolded proteins bind and activate death receptor 5 to trigger apoptosis during unresolved endoplasmic reticulum stress” (eLife, 2020)
